Assay results published in patent US11890279B2, “Quinolines that modulate SERCA and their use for treating disease” (Neurodon Corporation, priority 2020, dated 2024).

Experiments:
[1] = tested on: CSM14.1 cells; test: ER stress cell survival assay (thapsigargin); assay type: cell-based; details: compound 2 μM; about 15 μM thapsigargin; CSM14.1 cells;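 also: survival read as CellTiter-Glo luminescence after overnight incubation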
Protocol: ER Stress Cell Survival Assay
CSM14.1 cells were maintained in Complete Medium at 32° C.; wherein the Complete Medium contained Dulbecco's modified eagle medium (DMEM) with 10% fetal bovine serum (FSB), 1% L-glutamine, 100 IU/mL penicillin, and 100 μg/mL streptomycin. The cells were recovered from cultures by trypsinization and then seeded in 384 well plates (Greiner #781098) at a concentration of 1,000 cells/well in 20 μL of DMEM Assay Medium, wherein the DMEM Assay Medium contained 2% FBS, 100 IU/mL penicillin, and 100 μg/mL streptomycin. Seeding was performed using a MultiDrop Combi reagent broadcaster. The plates were incubated overnight at 32° C.
A test compound was prepared by 2-fold serial dilution in 100% DMSO using a BIOMEK® 2000 liquid handler (Beckman Coulter). A dose-response curve containing 10 concentrations of the test compound was obtained. Using a BIOMEK® FX liquid handler (Beckman Coulter), 2.5 μL of the test compound was transferred from the 100% DMSO serial dilution plate to an intermediate plate containing 47.5 μL of DMEM Assay Medium containing 2% FBS, 100 IU/mL penicillin, and 100 μg/mL streptomycin and mixed. To reduce or eliminate the interference from the compound's precipitation, 6 μL of the diluted compound was immediately transferred to the assay plate to achieve a high compound concentration of 100 μM in 99% DMEM Assay Medium and 1% DMSO. After the assay plates were incubated for 2 hrs, 4 μL of 112.5 μM thapsigargin (TG) (DMSO stock diluted into Assay TC Medium) was dispensed into each testing well with a MultiDrop Combi reagent broadcaster for a final concentration of about 15 μM TG. The tissue culture media (4 μL) containing vehicle only was transferred manually to each control cell using a 16 channel electronic pipette. […] High luminescence indicates cell survival.
Alternatively, a test compound was tested at a single compound concentration (e.g., 2 μM) to determine the effect of the compound on cell survival in comparison with vehicle.

[2] = tested on: N2a cells; test: Protection against hydrogen peroxide-induced cell death, N2a; assay type: cell-based, mouse; details: compound 40 μM; hydrogen peroxide 200 μM
Protocol: Protection against Hydrogen Peroxide-induced Cell-death. N2a cells grown in 96-well plates were exposed to a test compound (40 μM) for 2 hrs before addition of hydrogen peroxide (200 μM). After 40 min of incubation with hydrogen peroxide, ALAMARBLUE® regent (10% v/v) was added to the wells. Fluorescence reading was taken 2 hrs after the addition of the ALAMARBLUE® regent. Cell-viability was calculated as a percentage of relative fluorescence unit (RFU) compared to control.
The results are summarized in Table 2, where A represents a value greater than 50% cell rescue, B represents a value between 10% to 50% cell rescue, C represents a value between 1% to 10% cell rescue, and D represents a value no greater than 1% cell rescue.

[3] = Pharmacokinetics in CD-1 mice; assay type: in vivo, mouse; details: CD-1 mice
Protocol: Pharmacokinetics of test compounds were assessed in CD-1 mice. The compounds were formulated at 1 mg/mL in DMSO/Tween 80/water (10/10/80, vol/vol/vol) and dosed at 2 mg/kg intravenous (i.v.) or 10 mg/kg by oral gavage (P.O.) in triplicate. Blood was drawn at 0.25 h, 0.5 h, 1 hr, 2 hrs, 4 hrs, 8 hrs, and 24 hrs into EDTA containing tubes and plasma was harvested by centrifugation. Plasma (10 μL) containing 50% acetonitrile in water (5 μL) was added to 200 μL of ACN containing an internal standard. The samples were vortexed for 30 s. After centrifugation at […] and 4,000 rpm for 15 min, the supernatant was diluted 3 times with water. Then, 20 μL of diluted supernatant was injected into the LC/MS/MS system for quantitative analysis. The samples were injected onto an Agilent ZORBAX XDB-Phenyl 5μ column (50×2.10 mm). Mobile Phase A was water with 0.1% formic acid. Mobile Phase B was acetonitrile with 0.1% formic acid. Separation was achieved using a gradient of 70% A/30% B to 0% A/100% B over 2.10 min. A Shimadzu LCMS-8050 equipped with a turbo ion spray source was used for all analytical measurements. A positive ion MRM method was developed. Peak areas of the product ion were measured against the peak areas of the internal standard. Data was fit using WinNonLin (Pharsight Corporation, Mountain View, CA).

[4] = mouse, plasma, 2 mg/kg i.v. or 10 mg/kg P.O.

SMILES | Cell Survival [1] | N2a Cells (H2O2-induced) cell rescue [2] | other results
Cc1ccc2cccc(NC(=O)c3ccc(Br)cc3)c2n1 [Compound C1, 4-Bromo-N-(2-methylquinolin-8-yl)benzamide] | A (A represents a value greater than 50%) | – | –
Cc1ccc2cccc(NC(=O)c3ccccc3F)c2n1 [Compound C2, 2-Fluoro-N-(2-methylquinolin-8-yl)benzamide] | A (A represents a value greater than 50%) | – | –
Cc1ccc2cccc(NC(=O)c3ccccc3[N+](=O)[O-])c2n1 [Compound C3, 2-Nitro-N-(2-methylquinolin-8-yl)benzamide] | B (B represents a value between 10% and 50%) | – | –
Cc1ccc2cccc(NC(=O)c3cccc(OC(F)(F)F)c3)c2n1 [Compound C4, 3-Trifluoromethoxy-N-(2-methylquinolin-8-yl)benzamide] | B (B represents a value between 10% and 50%) | – | –
Cc1ccc2cccc(NC(=O)c3cccc(F)c3)c2n1 [Compound C6, 3-Fluoro-N-(2-methylquinolin-8-yl)benzamide] | C (C represents a value between 1% and 10%) | – | –
Cc1ccc2cccc(NC(=O)c3cccc([N+](=O)[O-])c3)c2n1 [Compound C7, 3-Nitro-N-(2-methylquinolin-8-yl)benzamide] | C (C represents a value between 1% and 10%) | – | –
Cc1ccc2cccc(NC(=O)c3ccc([N+](=O)[O-])cc3)c2n1 [Compound C8, 4-Nitro-N-(2-methylquinolin-8-yl)benzamide] | D (D represents a value no greater than 1%) | – | –
Cc1ccc2cccc(NC(=O)c3ccccc3Cl)c2n1 [Compound C9, 2-Chloro-N-(2-methylquinolin-8-yl)benzamide] | D (D represents a value no greater than 1%) | – | –
Cc1ccc2cccc(NC(=O)c3ccc(OC(F)(F)F)cc3)c2n1 [Compound C11, 4-Trifluoromethoxy-N-(2-methylquinolin-8-yl)benzamide] | D (D represents a value no greater than 1%) | – | –
Cc1ccc2cccc(NC(=O)c3cccc(C(F)(F)F)c3)c2n1 [Compound C12, 3-Trifluoromethyl-N-(2-methylquinolin-8-yl)benzamide] | D (D represents a value no greater than 1%) | – | –
CCOc1ccc(C(=O)Nc2cccc3ccc(C)nc23)cc1 [Compound C13, 4-Ethoxy-N-(2-methylquinolin-8-yl)benzamide] | D (D represents a value no greater than 1%) | – | –
Cc1ccc2cccc(NC(=O)c3ccc(F)cc3)c2n1 [Compound C14, 4-Fluoro-N-(2-methylquinolin-8-yl)benzamide] | D (D represents a value no greater than 1%) | – | –
Cc1ccc2cccc(NC(=O)c3cccc(Cl)c3)c2n1 [Compound C15, 3-Chloro-N-(2-methylquinolin-8-yl)benzamide] | D (D represents a value no greater than 1%) | – | –
Cc1ccc2cccc(NC(=O)c3cccc(Br)c3)c2n1 [Compound C16, 3-Bromo-N-(2-methylquinolin-8-yl)benzamide] | D (D represents a value no greater than 1%) | – | –
Cc1ccc2cccc(NC(=O)c3ccc(Cl)cc3)c2n1 [Compound C17, 4-Chloro-N-(2-methylquinolin-8-yl)benzamide] | D (D represents a value no greater than 1%) | – | –
Cc1ccc2cccc(NC(=O)c3ccc(SC(C)C)cc3)c2n1 [Compound C21, 4-(Isopropylthio)-N-(2-methylquinolin-8-yl)benzamide] | C (C represents a value between 1% and 10%) | – | –

SMILES | Cell Survival [1] | N2a Cells (H2O2-induced) cell rescue [2] | other results
Cc1ccc2cccc(NC(=O)c3cccs3)c2n1 [Compound G1, N-(2-Methylquinolin-8-yl)thiophene-2-carboxamide] | – | B (B represents a value between 10% to 50% cell rescue) | –
Cc1ccc2cccc(NC(=O)c3sccc3C)c2n1 [Compound G3, 3-Methyl-N-(2-methylquinolin-8-yl)thiophene-2-carboxamide] | – | B (B represents a value between 10% to 50% cell rescue) | –
Cc1ccc2cccc(NC(=O)c3ccc(Cl)s3)c2n1 [Compound G4, 5-Chloro-N-(2_methylquinolin-8-yl)thiophene-2-carboxamide] | – | B (B represents a value between 10% to 50% cell rescue) | –
CC(=O)c1ccc(C(=O)Nc2cccc3ccc(C)nc23)s1 [Compound G5, 5-Acetyl-N-(2-methylquinolin-8-yl)thiophene-2-carboxamide] | – | B (B represents a value between 10% to 50% cell rescue) | –
Cc1ccc2cccc(NC(=O)c3cc(Br)cs3)c2n1 [Compound G8, 4-Bromo-N-(2-methylquinolin-8-yl)thiophene-2-carboxamide] | – | – | F ([3]; 10 mg/kg P.O. vs 2 mg/kg i.v.): 0.12%; AUC [3, 4]: 0.78 ng·h/mL; Cmax [3, 4]: 10 nM; half-life [3, 4]: 36 min
O=C(Nc1cccc2cccnc12)c1ccc(Br)s1 [Compound H1, 5-Bromo-N-(quinolin-8-yl)thiophene-2-carboxamide] | – | B (B represents a value between 10% to 50% cell rescue) | –
O=C(Nc1cccc2cccnc12)c1cccs1 [Compound H2, N-(quinolin-8-yl)thiophene-2-carboxamide] | – | B (B represents a value between 10% to 50% cell rescue) | –
Cc1ccc(C(=O)Nc2cccc3cccnc23)s1 [Compound H3, 5-Methyl-N-(quinolin-8-yl)thiophene-2-carboxamide] | – | A (A represents a value greater than 50% cell rescue) | –
Cc1ccsc1C(=O)Nc1cccc2cccnc12 [Compound H4, 3-Methyl-N-(quinolin-8-yl)thiophene-2-carboxamide] | – | A (A represents a value greater than 50% cell rescue) | –
O=C(Nc1cccc2cccnc12)c1ccc(Cl)s1 [Compound H5, 5-Chloro-N-(quinolin-8-yl)thiophene-2-carboxamide] | – | B (B represents a value between 10% to 50% cell rescue) | –
CC(=O)c1ccc(C(=O)Nc2cccc3cccnc23)s1 [Compound H6, 5-Acetyl-N-(quinolin-8-yl)thiophene-2-carboxamide] | – | B (B represents a value between 10% to 50% cell rescue) | –
O=C(Nc1cccc2cccnc12)c1cc2ccccc2o1 [Compound H7, N-(Quinolin-8-yl)benzofuran-2-carboxamide] | – | B (B represents a value between 10% to 50% cell rescue) | –
O=C(Nc1cccc2cccnc12)c1ccc([N+](=O)[O-])s1 [Compound H8, 5-Nitro-N-(quinolin-8-yl)thiophene-2-carboxamide] | – | B (B represents a value between 10% to 50% cell rescue) | –
O=C(Nc1cccc2cccnc12)c1cc(Br)cs1 [Compound H9, 4-Bromo-N-(quinolin-8-yl)thiophene-2-carboxamide] | – | A (A represents a value greater than 50% cell rescue) | –
O=C(Nc1cccc2cccnc12)c1sc(Br)cc1Br [Compound H10, 3,5-Dibromo-N-(quinolin-8-yl)thiophene-2-carboxamide] | – | B (B represents a value between 10% to 50% cell rescue) | –
O=C(Nc1cccc2cccnc12)c1cc(Br)c(Br)s1 [Compound H11, 4,5-Dibromo-N-(quinolin-8-yl)thiophene-2-carboxamide] | – | A (A represents a value greater than 50% cell rescue) | –
